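Dose response: 5 concentrations. Exposure: 48 h. Format: 96-well plates. Endpoint: linear interpolation; highest concentration if not reached. GI50 marks 50% less growth.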 The source made the active and inactive calls. No stated cut-off is given here; in the data, active = GI50 up to about 1.1 µM and inactive = higher.
Experiments:
Assay in all cases: NCI-60 cell line screen, 48 h
[1] = system: ACHN
[2] = system: COLO 205
[3] = system: HCC 2998
[4] = system: HCT-15
[5] = system: HOP-62
[6] = system: HOP-92
[7] = system: HT-29
[8] = system: IGROV-1
[9] = system: MOLT-4
[10] = system: Malme-3M
[11] = system: NCI-H460
[12] = system: OVCAR-3
[13] = system: OVCAR-8
[14] = system: RXF 393
[15] = system: SNB-19
[16] = system: SR
[17] = system: MDA-MB-231
[18] = system: MDA-MB-435
[19] = system: NCI/ADR-RES
[20] = system: MCF7

Row | Compound | GI50 [1] | GI50 [2] | GI50 [3] | GI50 [4] [µM] | GI50 [5] | GI50 [6] | GI50 [7] | GI50 [8] | GI50 [9] | GI50 [10] | GI50 [11] | GI50 [12] | GI50 [13] | GI50 [14] | GI50 [15] | GI50 [16] | GI50 [17] | GI50 [18] | GI50 [19] | GI50 [20]
1 | Cc1nc2sccn2c1C(=O)N/N=C1\SCC(=O)N1C | > 100 µM (inactive) | > 100 µM (inactive) | > 100 µM (inactive) | > 100 | > 100 µM (inactive) | > 100 µM (inactive) | > 100 µM (inactive) | > 100 µM (inactive) | > 100 µM (inactive) | > 100 µM (inactive) | > 100 µM (inactive) | > 100 µM (inactive) | > 100 µM (inactive) | > 100 µM (inactive) | > 100 µM (inactive) | > 100 µM (inactive) |  |  |  | 
2 | CNC(=S)NNc1ncnc2c1c(-c1ccc(Cl)cc1)cn2-c1ccc(C)cc1 | 10 µM (inactive) | 14.3 µM (inactive) |  | 8.39 | 17.6 µM (inactive) | 15.5 µM (inactive) | 14.9 µM (inactive) | 10.4 µM (inactive) | 3.85 µM (inactive) | 13.1 µM (inactive) | 1.95 µM (inactive) | 11.5 µM (inactive) | 9.48 µM (inactive) | 16.4 µM (inactive) | 17.6 µM (inactive) | 2.21 µM (inactive) | 7.8 µM (inactive) | 8.34 µM (inactive) | 11.6 µM (inactive) | 
3 | COc1ccc(C(=O)C2=NON3OC23C(=O)c2ccc(OC)cc2)cc1 (configuration not stated) | 17.5 µM (inactive) | 7.62 µM (inactive) | 18.1 µM (inactive) | 15.5 | > 100 µM (inactive) | 2.59 µM (inactive) | 22.4 µM (inactive) | 11.6 µM (inactive) | 2.59 µM (inactive) | 12.9 µM (inactive) | 20.6 µM (inactive) | 9.59 µM (inactive) | 8.77 µM (inactive) | 4.09 µM (inactive) | 15.9 µM (inactive) | 2.56 µM (inactive) |  |  |  | 
4 | CCOC(=O)C(=Cc1ccccc1Cl)C(=O)OCC | 2.61 µM (inactive) | 1.57 µM (inactive) | > 10 µM (inactive) | 1.72 | 2.13 µM (inactive) | 2.88 µM (inactive) | 1.43 µM (inactive) | 3.49 µM (inactive) | 2.52 µM (inactive) | 1.82 µM (inactive) | 3.21 µM (inactive) | 1.41 µM (inactive) | 0.938 µM (active) | 1.61 µM (inactive) | 1.84 µM (inactive) | 0.547 µM (active) | 1.83 µM (inactive) | 1.13 µM (inactive) | 2 µM (inactive) | 
5 | CC(C)=Nn1cnc(C(=N)C#N)c1N | > 100 µM (inactive) | > 100 µM (inactive) | > 100 µM (inactive) | > 100 | > 100 µM (inactive) |  | > 100 µM (inactive) | > 100 µM (inactive) | > 100 µM (inactive) | > 100 µM (inactive) | > 100 µM (inactive) | > 100 µM (inactive) | > 100 µM (inactive) | > 100 µM (inactive) | > 100 µM (inactive) | > 100 µM (inactive) |  |  | > 100 µM (inactive) | > 100 µM (inactive)
6 | COc1ccc(CCc2cc(OC)cc(OC)c2)cc1 | 58.5 µM (inactive) | 12 µM (inactive) | 10.2 µM (inactive) | 7.06 | 16.7 µM (inactive) | 38.3 µM (inactive) | 6.11 µM (inactive) | 43 µM (inactive) | 8.17 µM (inactive) | 33.7 µM (inactive) | 22 µM (inactive) | 10.9 µM (inactive) | 66.4 µM (inactive) | 18 µM (inactive) | > 100 µM (inactive) | 9.71 µM (inactive) |  |  |  | 
